Test results reported in publication PMC3144881, “Computational Reverse-Engineering of a Spider-Venom Derived Peptide Active Against Plasmodium falciparum SUB1” (PLoS ONE, 2011).

How the values were obtained:
[1] = tested on: P. falciparum 3D7 segmented schizonts (egress/invasion); test: Merozoite egress/invasion assay, synchronized schizonts, flow cytometry (YOYO-1); type: cell-based, Plasmodium falciparum; settings: 10 μM E64, 12 hr, 0.5% segmented schizonts, vs mock control
[2] = tested on: P. falciparum 3D7 segmented schizonts (egress/invasion); settings: cited from earlier work
Description: A synchronised culture composed of segmented schizontes of P. falciparum (3D7 clone) at 0.5% parasitemia and 1% hematocrit is performed in a 24 wells plate. An aliquot corresponding to 10% of the starting culture (T ) is diluted in a solution at 0.04% of glutaraldehyde in PBS (Dulbecco) and store at 4 C for further flow cytometry analysis.

[3] = molecular target: T1, recombinant PfSUB1 (Plasmodium falciparum, UniProt Q8I0V0); test: Enzymatic test: inhibition of recombinant PfSUB1, Dabsyl/Edans peptide substrate; type: biochemical; settings: translated from the measured PfSUB1 Ki
T1 construct: Culture supernatant containing the secreted and active PvSUB1 or PfSUB1 recombinant enzymes was harvested; 6xHis (C); made in house; host or cells: Sf9 insect cells (baculovirus)

[4] = tested on: P. falciparum clone 3D7 (asynchronous culture); settings: read-out: EC50 on the asynchronous culture of P. falciparum intra-erythrocytic cycle; ± 6 (SEM); clone 3D7, 0,5% parasitemia, 1% hematocrit, 48 hours contact, 10 μM hypoxanthine, 37 °C
Description: Asexual cultures of reference clone 3D7 obtained from MR4 (www.MR4.org) was maintained in continuous cultures following the method of Trager an Jensen, except that the medium was composed of RPMI 1640 medium supplemented with 10% decomplemented human serum (AB+), hypoxanthine 100 [drawing 51] M, gentamycin […]. Parasites were incubated at 37 [drawing 52] C in an atmosphere composed of 5%O [drawing 53] , 5%CO [drawing 54] and 90%N [drawing 55] . […] EC [drawing 57] have been determined following nonlinear regression analysis using HN-NonLin V1.1 software (http://malaria.farch.net).

[5] = tested on: P. falciparum; settings: intra-erythrocytic cycle; cited from earlier work
[6] = tested on: fungi, bacteria; settings: cited from earlier work
Text: (§1) In addition to therapies based on small molecules such as chloroquine, artemisinins, quinine and atovaquone, the development of new classes of molecules based on proteins or peptidomimetics [8] is an active field of research. […] Choi et al. have isolated from the ven ...

[7] = tested on: human epithelial cells; settings: cited from earlier work
Text: as §1

[8] = molecular target: T2, recombinant Plasmodium vivax SUB1 (PvSUB1) (Plasmodium vivax, UniProt E6Y8B9); set-up: method as in Bouillon et Giganti et al, in preparation; settings: ± 1,7; substrate cleaved between the two aspartates, Dabsyl/Edans; ref Bouillon et Giganti et al, in preparation; read-out: apparent Km of PvSUB1 for its substrate; cited from earlier work
T2 construct: Culture supernatant containing the secreted and active PvSUB1 or PfSUB1 recombinant enzymes was harvested; 6xHis (C); made in house; host or cells: Sf9 insect cells (baculovirus)

[9] = molecular target: T1, recombinant PfSUB1; set-up: method as in 2 sources, ref 22 = [22]; PMID 12764150; doi:10.1074/jbc.M303827200; 22 Jean L Hackett F Martin SR Blackman MJ 2003 Functional characterization of the propeptide of Plasmodium falciparum subtilisin-like protease-1. J Biol Chem 278 28572 9 12764150 10.1074/jbc.M30382720 ||| ref Bouillon et Giganti et al, in preparation; settings: ± 3,4; substrate cleaved between D and N, Dabsyl/Edans; ref Bouillon et Giganti et al, in preparation; read-out: apparent Km of PfSUB1 for its substrate; cited from earlier work
[10] = molecular target: recombinant Plasmodium falciparum subtilisin-like serine protease SUB1 (PfSUB1), purified and active (Plasmodium falciparum) (UniProt Q8I0V0)
[11] = molecular target: recombinant Plasmodium falciparum subtilisin-like serine protease SUB1 (PfSUB1), purified and active (Plasmodium falciparum) (UniProt Q8I0V0); remark: listed apart in the source
[12] = molecular target: recombinant Plasmodium falciparum subtilisin-like serine protease SUB1 (PfSUB1), purified and active (Plasmodium falciparum) (UniProt Q8I0V0); test: enzyme inhibition assay (Dabsyl/Edans quenched fluorescent peptide substrate); 13 ng purified PvSUB1 or PfSUB1, 25 uM substrate, 20 mM Tris pH 7.5, 25 mM CaCl2, 37 C; inhibitor at ten concentrations from 1 mM to 2 uM; fluorescence read every 3 min for 90 min; N = 3
[13] = molecular target: recombinant Plasmodium vivax SUB1 (PvSUB1), purified and active (Plasmodium vivax) (UniProt E6Y8B9); test: as above

Molecule: CC(C)C[C@H](NC(=O)[C@H]1O[C@@H]1C(=O)O)C(=O)NCCCCN=C(N)N (relative stereo) [E64, trans-Epoxysuccinyl-L-leucylamido(4-guanidino)butane]
- inhibition of newly formed trophozoites and equivalent segmented schizont accumulation [1]: 91.6%
- block of egress of P. falciparum merozoites in vitro [2]: known to block the egress of P. falciparum merozoites in vitro

Molecule: CC[C@H](C)[C@@H]1NC(=O)CNC(=O)[C@@H](NC(=O)[C@H](C)N)CSSC[C@@H]2NC(=O)[C@@H]3CSSC[C@@H](C(=O)N[C@@H](CC(C)C)C(=O)N[C@H](C(=O)N[C@@H](CCC(N)=O)C(=O)N[C@H](C(=O)N[C@@H](CO)C(=O)O)C(C)C)C(C)C)NC(=O)[C@H](CCCCN)NC(=O)CNC(=O)[C@H](Cc4ccc(O)cc4)NC(=O)[C@H](CCCNC(=N)N)NC(=O)[C@H](CSSC[C@H](NC(=O)[C@H](CC(N)=O)NC(=O)[C@H](CC(=O)O)NC(=O)[C@H](Cc4c[nH]cn4)NC(=O)[C@H](CC(C)C)NC1=O)C(=O)N[C@@H](C(C)C)C(=O)N[C@@H](Cc1ccc(O)cc1)C(=O)N[C@@H](C(C)C)C(=O)N1CCC[C@H]1C(=O)N[C@@H](C)C(=O)N[C@@H](CCC(N)=O)C(=O)N[C@@H](CC(N)=O)C(=O)N1CCC[C@H]1C(=O)N3)NC(=O)[C@H](CCC(N)=O)NC(=O)[C@H](CC(C)C)NC(=O)CNC(=O)[C@H](CCCNC(=N)N)NC2=O [PcFK1]
- free energy of binding translated from Ki value [3]: -26.7 kJ/mol
- EC50 [4]: 116 µM
- IC50, growth of P. falciparum [5]: low micromolar range
- antifungal or antibacterial activity [6]: no antifungal or antibacterial activity
- effect on growth or viability of human epithelial cells [7]: nor do they affect the growth or viability of human epithelial cells

Molecule: KLVGADDVSLA [PvSUB1 peptide substrate with fluorophore/quencher Dabsyl/Edans at each edge]
- Km [8]: 19.7 µM

Molecule: KLVSADNIDIS [PfSUB1 peptide substrate with fluorophore/quencher Dabsyl/Edans at each edge]
- Km [9]: 30.2 µM

Molecule: Psalmopeotoxin I (PcFK1), chemically synthesized with an extra serine at the C-term (from UniProt P0C201 52-86) (peptide)
- EC50 of PcFK1 on the asynchronous culture of P. falciparum intra-erythrocytic cycle (clone 3D7, 48 hours with the drug) [10]: 116 µM
- inhibition of newly formed trophozoites (merozoite egress/invasion, synchronized P. falciparum culture, 12 hr, flow cytometry) at 200 uM PcFK1, compared to the mock control [11]: 56.2%
- Ki [12]: 29.3 µM
- Ki [13]: 36.3 µM
